Data set [1] has as its system Raji (Burkitt's) lymphoma cells. The data set is described as follows: MTT assay for 4-day viability of Raji (Burkitt's) lymphoma cells. The class given is cell-based. Conditions: Homo sapiens, 96 h, Raji cells (highly express MCT1), read-out: approximate potency (EC50). The text has this: Specific Examples 1-52 of compounds of the invention, with estimated EC50 values determined using an MTT assay for 4-day viability of Raji (Burkitt's) lymphoma cells, a cell line known to highly express MCT1 and to be sensitive to small molecule MCT inhibitors,^4 are shown in Table 2. Assay protocols follow those described in the literature.^4 Other assays that are not described here but that are standard in the field, such as an assay for competitive inhibition of transport of radiolabeled lactic acid, an MCT substrate, may also be useful in establishing mechanism of action of these compounds.

Data set [2] relates to Raji Burkitt's lymphoma cells. The data set is described as follows: Mouse xenograft study, tumor volume and tumor weight. Format: in vivo. As to conditions: Raji xenograft in mice, 30 mg/kg daily; for final tumor mass: tumor mass measured at day 29, relative to vehicle; for tumor growth over time (tumor volume): ~20 days of treatment, relative to vehicle. The method, then:
(§1) Protocols follow those described in the literature.^4 Mice were transplanted with cultured tumor cells and, after an incubation period (typically 10 days), mice were left untreated or were treated daily with a 30 mg/kg dose of the test compound. Tumor volumes were measured with calipers over ˜20 days of treatment. Tumors were excised and weighed at the end of treatment. In two experiments using Raji Burkitt's lymphoma cells^4, the compounds studied were the product of example 9 (FIG. 3), code named SR-11105, and the product of example 21 (FIG. 4), code named SR-13779.

The nature of data set [3]: Mouse xenograft study, animal body weight. The class given is in vivo. As to conditions: Raji xenograft mice, 30 mg/kg daily, over the course of the study. On the procedure:
as §1

SMILES strings stand for the structures. Entries after “also recorded” stand apart in the source; their conditions may differ.

As for `Cc1n[nH]c(C)c1Cc1sc2c(c1-c1ccc(F)c(CO)c1)c(=O)n(C)c(=O)n2CC(C)C` [Example 9, 6-((3,5-dimethyl-1H-pyrazol-4-yl)methyl)-5-(4-fluoro-3-(hydroxymethyl)phenyl)-1-isobutyl-3-methylthieno[2,3-d]pyrimidine-2,4(1H,3H)-dione], the EC50 (usually the concentration giving half of the maximal effect) in data set [1] is at most 20 nM. In data set [2], the final tumor mass entry is recorded as “significant reduction in final tumor mass” and the “tumor growth over time (tumor volume)” value is listed as “significant reduction of tumor growth rate”. The animal body weight result in data set [3] was “maintained their body weight”.

For `Cc1n[nH]c(C)c1Cc1sc2c(c1-c1ccc(F)c(CO)c1F)c(=O)n(C1CC1)c(=O)n2CC(C)C` [Example 21, 3-cyclopropyl-5-(2,4-difluoro-3-(hydroxymethyl)phenyl)-6-((3,5-dimethyl-1H-pyrazol-4-yl)methyl)-1-isobutylthieno[2,3-d]pyrimidine-2,4(1H,3H)-dione], in data set [1], the EC50 is at most 20 nM. Moreover, the final tumor mass result in data set [2] (listed as SR-13779) is reported as “significant reduction in final tumor mass; also recorded: more pronounced effect”. In addition, the “tumor growth over time (tumor volume)” value in data set [2] is given as “effectively blocked tumor growth”. Moreover, the animal body weight result in data set [3] is reported as “maintained their body weight”. For the molecule `CC(C)Cc1nn(C)c(=O)c2c(-c3cc(CO)ccc3Cl)n(Cc3cccc4ccccc34)cc12` [Example 30, 7-(2-chloro-5-(hydroxymethyl)phenyl)-4-isobutyl-2-methyl-6-(naphthalen-1-ylmethyl)-2,6-dihydro-1H-pyrrolo[3,4-d]pyridazin-1-one], in data set [1], the concentration giving a half-maximal response (EC50) is 600 nM. For the molecule `CC(C)Cc1nn(C)c(=O)c2c(-c3cccc(CO)c3)n(Cc3cccc4ccccc34)cc12` [Example 31, 7-(3-(hydroxymethyl)phenyl)-4-isobutyl-2-methyl-6-(naphthalen-1-ylmethyl)-2,6-dihydro-1H-pyrrolo[3,4-d]pyridazin-1-one], in data set [1], the concentration giving a half-maximal response (EC50) was found to be 100 nM. Take `CC(C)Cc1nn(C)c(=O)c2c(-c3cncc(CO)c3)n(Cc3cccc4ccccc34)cc12` [Example 32, 7-(5-(hydroxymethyl)pyridin-3-yl)-4-isobutyl-2-methyl-6-(naphthalen-1-ylmethyl)-2,6-dihydro-1H-pyrrolo[3,4-d]pyridazin-1-one]: the EC50 in data set [1] was 900 nM. Same read-out and setting: under `CC(C)Cc1nn(C)c(=O)c2c(-c3csc(C(C)O)c3)n(Cc3cccc4ccccc34)cc12` (stereo not shown) [Example 33, 7-(5-(1-hydroxyethyl)thiophen-3-yl)-4-isobutyl-2-methyl-6-(naphthalen-1-ylmethyl)-2,6-dihydro-1H-pyrrolo[3,4-d]pyridazin-1-one] stands 70 nM; under `CC(C)Cc1nn(C)c(=O)c2c(-c3cccc(C(C)O)n3)n(Cc3cccc4ccccc34)cc12` (stereo not shown) [Example 34, 7-(6-(1-hydroxyethyl)pyridin-2-yl)-4-isobutyl-2-methyl-6-(naphthalen-1-ylmethyl)-2,6-dihydro-1H-pyrrolo[3,4-d]pyridazin-1-one], 1000 nM. The same measure, in the same setting: under `CC(C)Cc1nn(C)c(=O)c2c(-c3cc(C(C)O)ccc3F)n(Cc3cccc4ccccc34)cc12` (stereo not shown) [Example 35, 7-(2-fluoro-5-(1-hydroxyethyl)phenyl)-4-isobutyl-2-methyl-6-(naphthalen-1-ylmethyl)-2,6-dihydro-1H-pyrrolo[3,4-d]pyridazin-1-one] stands 80 nM; under `CC(C)Cc1nn(C)c(=O)c2c(-c3cccc(C(C)O)c3)n(Cc3cccc4ccccc34)cc12` (stereo not shown) [Example 36, 7-(3-(1-hydroxyethyl)phenyl)-4-isobutyl-2-methyl-6-(naphthalen-1-ylmethyl)-2,6-dihydro-1H-pyrrolo[3,4-d]pyridazin-1-one], 100 nM. `CC(C)Cc1nn(C)c(=O)c2c(-c3csc(C(O)C(F)(F)F)n3)n(Cc3cccc4ccccc34)cc12` (stereo not shown) [Example 37, 4-isobutyl-2-methyl-6-(naphthalen-1-ylmethyl)-7-(2-(2,2,2-trifluoro-1-hydroxyethyl)thiazol-4-yl)-2,6-dihydro-1H-pyrrolo[3,4-d]pyridazin-1-one]: the EC50 in data set [1] came out at 100 nM. As for `CC(C)Cc1nn(C)c(=O)c2c(-c3csc(C(O)C(F)(F)F)c3)n(Cc3cccc4ccccc34)cc12` (stereo not shown) [Example 38, 4-isobutyl-2-methyl-6-(naphthalen-1-ylmethyl)-7-(5-(2,2,2-trifluoro-1-hydroxyethyl)thiophen-3-yl)-2,6-dihydro-1H-pyrrolo[3,4-d]pyridazin-1-one], in data set [1], the EC50 was at most 20 nM. Turning to `CC(C)Cc1nn(C)c(=O)c2c(-c3ccc(C(O)C(F)(F)F)s3)n(Cc3cccc4ccccc34)cc12` (stereo not shown) [Example 39, 4-isobutyl-2-methyl-6-(naphthalen-1-ylmethyl)-7-(5-(2,2,2-trifluoro-1-hydroxyethyl)thiophen-2-yl)-2,6-dihydro-1H-pyrrolo[3,4-d]pyridazin-1-one], the EC50 in data set [1] was found to be 90 nM.

Take `CC(C)Cc1nn(C)c(=O)c2c(-c3cccc(C(O)C(F)(F)F)c3)n(Cc3cccc4ccccc34)cc12` (stereo not shown) [Example 40, 4-isobutyl-2-methyl-6-(naphthalen-1-ylmethyl)-7-(3-(2,2,2-trifluoro-1-hydroxyethyl)phenyl)-2,6-dihydro-1H-pyrrolo[3,4-d]pyridazin-1-one]: the EC50 in data set [1] came to 50 nM.

Turning to `CC(C)Cc1nn(C)c(=O)c2c(-c3cc(CO)ccc3F)n(Cc3ccc(-c4ccccc4)cc3)cc12` [Example 41, 6-([1,1′-biphenyl]-4-ylmethyl)-7-(2-fluoro-5-(hydroxymethyl)phenyl)-4-isobutyl-2-methyl-2,6-dihydro-1H-pyrrolo[3,4-d]pyridazin-1-one], the concentration giving a half-maximal response (EC50) in data set [1] came to 800 nM. Consider `CC(C)Cc1nn(C)c(=O)c2c(-c3cccc(C(C)O)c3)n(Cc3ccc(-c4ccccc4)cc3)cc12` (stereo not shown) [Example 42, 6-([1,1′-biphenyl]-4-ylmethyl)-7-(3-(1-hydroxyethyl)phenyl)-4-isobutyl-2-methyl-2,6-dihydro-1H-pyrrolo[3,4-d]pyridazin-1-one], for which, in data set [1], the EC50 fell in the range of 1000 to 10000 nM. On to `Cc1n[nH]c(C)c1Cn1cc2c(CC(C)C)nn(C)c(=O)c2c1-c1cccc(CO)c1` [Example 43, 6-((3,5-dimethyl-1H-pyrazol-4-yl)methyl)-7-(3-(hydroxymethyl)phenyl)-4-isobutyl-2-methyl-2,6-dihydro-1H-pyrrolo[3,4-d]pyridazin-1-one], for which the EC50 in data set [1] was found to be 500 nM. Still for that read-out and setting: then `Cc1n[nH]c(C)c1Cn1cc2c(CC(C)C)nn(C)c(=O)c2c1-c1cc(CO)ccc1F` [Example 44, 6-((3,5-dimethyl-1H-pyrazol-4-yl)methyl)-7-(2-fluoro-5-(hydroxymethyl)phenyl)-4-isobutyl-2-methyl-2,6-dihydro-1H-pyrrolo[3,4-d]pyridazin-1-one], with 200 nM. Consider `Cc1n[nH]c(C)c1Cn1cc2c(CC(C)C)nn(C)c(=O)c2c1-c1cccc(C(O)C(F)(F)F)c1` (stereo not shown) [Example 45, 6-((3,5-dimethyl-1H-pyrazol-4-yl)methyl)-4-isobutyl-2-methyl-7-(3-(2,2,2-trifluoro-1-hydroxyethyl)phenyl)-2,6-dihydro-1H-pyrrolo[3,4-d]pyridazin-1-one], for which, in data set [1], the EC50 is at most 20 nM. As to `CC(C)Cc1nn(C)c(=O)c2c(-c3cccc(CO)c3)n(Cc3cc(Cl)nc4ccccc34)cc12` [Example 46, 6-((2-chloroquinolin-4-yl)methyl)-7-(3-(hydroxymethyl)phenyl)-4-isobutyl-2-methyl-2,6-dihydro-1H-pyrrolo[3,4-d]pyridazin-1-one], the EC50 in data set [1] lay within 1000 to 10000 nM.

On to `CC(C)Cc1nn(C)c(=O)c2c(-c3cccc(CO)c3)n(Cc3cnc(Cl)c4ccccc34)cc12` [Example 47, 6-((1-chloroisoquinolin-4-yl)methyl)-7-(3-(hydroxymethyl)phenyl)-4-isobutyl-2-methyl-2,6-dihydro-1H-pyrrolo[3,4-d]pyridazin-1-one], for which, in data set [1], the EC50 fell in the range of 1000 to 10000 nM. As for `CC(C)Cc1nn(C)c(=O)c2c(-c3cccc(CO)c3)n(CCOc3ccccc3Cl)cc12` [Example 48, 6-(2-(2-chlorophenoxy)ethyl)-7-(3-(hydroxymethyl)phenyl)-4-isobutyl-2-methyl-2,6-dihydro-1H-pyrrolo[3,4-d]pyridazin-1-one], the EC50 in data set [1] lay in the range of 1000 to 10000 nM. As to `CC(C)Cc1nn(C)c(=O)c2c(-c3cccc(CO)c3)n(Cc3cc(NCCCCCN)nc4ccccc34)cc12` [Example 49, 6-((2-((5-aminopentyl)amino)quinolin-4-yl)methyl)-7-(3-(hydroxymethyl)phenyl)-4-isobutyl-2-methyl-2,6-dihydro-1H-pyrrolo[3,4-d]pyridazin-1-one], in data set [1], the 50% effective concentration (EC50) was in the range of 1000 to 10000 nM.
